Reference: patent US20030088057A1, “PEPTIDE SUBSTRATES PHOSPHORYLATED BY P21-ACTIVAGED PROTEIN KINASE STATEMENT REGARDING FEDERALLY SPONSORED REASEARCH OR DEVELOPMENT” (priority 1998, published 2003)
Where two headings read alike, the source gives them in different places. No end group written: not given here.

What was measured:
γ-PAK [1] = experiment: Kinetic parameters (Km, Vmax) for phosphorylation of synthetic peptides by γ-PAK; type: biochemical, rabbit
Procedure: (§1) Assays with peptides (I mM) were carried out with γ-PAK (1.6-5.6 units) in 25 μL reaction mixtures incubated for 30 min at 30° C. under conditions described above, except that 0.4 mg/mL of bovine serum albumin was added and the specific activity of ATP was 300-2000 cpm/pmol. Reactions were terminated with 5 μL of 100 mM ATP, and the amount of ^32p incorporated was quantitated by precipitation of 20 μL aliquots on P81 phosphocellulose paper with 75 mM H3PO4 as described previously [Bensen, E. S., et al., Biochim. Biophys. Acta, 1292:249-258 (1996)]. Peptides containing only one basic amino acid were analyzed by thin-layer electrophoresis on cellulose sheets for 2 h at 600 V with pyridine/acetic acid/water (10:100:890), pH 3.5, as solvent, as described previously [Bensen, E. S., et al., supra]. Activation of γ-PAK by autophosphorylation in the presence of Cdc42(GTPγS) was performed as previously described [Jakobi, R., et al., supra]. γ-PAK was also activated by limited digestion with trypsin as described previously [Rooney, R. D., et al., (1996), supra].

PKC = experiment: Rates of phosphorylation of synthetic peptides by PKC; type: biochemical, bovine; details: for 32P incorporated: PKC (3.4 units), with Ca2+ and phospholipids, 0.14 mM ATP; for 32P incorporated, %: PKC, AKRASAA taken as 100%
Description: (§2) A. Materials. γ-PAK was purified from rabbit reticulocytes to apparent homogeneity by chromatography on DEAE-cellulose, SP-Sepharose, protamine agarose, and FPLC on Mono S and Mono Q. Histone I (type IIIS), mixed histone (type IIAS), trypsin (L-1-tosylamido-2-phenylethyl chloromethyl ketone treated), soybean trypsin inhibitor, bovine serum albumin (fatty acid free), and myelin basic protein were purchased from Sigma. Purified histones 2B and 4 were purchased from Boehringer-Mannheim. Myosin light chain from rabbit skeletal muscle was a gift from Dr. James Stull, University of Texas Southwestern Medical Center, Dallas, Tex.; rat prolactin was provided by Dr. Ameae Walker, University of California, Riverside, Calif.; and the purified catalytic subunit of cAMP-dependent protein kinase from bovine heart was a gift from Dr. William H. Fletcher, J. L. Pettis Memorial V. A. Hospital, Loma Linda, Calif. Protein kinase C was purified from bovine brain according to the procedure of Walton et al. [Walton, G. M., et al., Anal Biochem., 161:425-437 (1987)], with modifications [Venema, R. C., et al., J. Biol. Chem., 266:5298-5302 (1991)]. The clone for GST-Cdc42 was generously provided by Dr. Channing Der, University of North Carolina, Chapel Hill, N.C. Cellulose thin-layer chromatography sheets were from Kodak.
Reactions with PKA (10.5 units) were carried out under the same conditions as with γ-PAK except that 0.14 mM ATP was used. Reactions with PKC (3.4 units) were performed as with PKA, with the addition of 0.4 mM CaCl2, phosphatidylinositol (15 μg/mL), phosphatidylserine (15 μg/ mL), and 1,2-diolein (3 μg/mL), as described [Tuazon, P. T., et al., (1989), supra]. A unit of PKA or PKC is defined as the amount of enzyme that incorporates 1 pmol of phosphate/min at 30° C. into histone IIAS or histone 1, respectively.
PKA and PKC are known to require basic amino acids on the N-terminal side of the phosphorylatable serine/ threonine. To distinguish their substrate specificities from that of γ-PAK, the relative rates of phosphorylation were determined with the synthetic peptide substrates using the conditions for γ-PAK, with the addition of Ca^2+ and phospholipids for PKC. The rates shown in Table 5 are calculated with equivalent units of enzyme; the rate of phosphorylation of the peptide AKRASAA (SEQ ID NO:6) is taken as 100% for all three enzymes. As would be expected, PKA preferentially phosphorylated the peptides that contained RR or RK at the −3 and −2 positions and with […] residues or proline at the −4 and −1 positions inhibitory. PKC recognized SKR>RKS>KKS. The most notable difference between γ-PAK and PKA or PKC is the effect of acidic residues on the susceptibility of the peptide to be phosphorylated. An acidic residue in the −1 or −4 position was beneficial for γ-PAK but was detrimental for both PKA and PKC (Table 5). […] In addition, γ-PAK could not tolerate an arginine in the −3 position when lysine was in the −2 position.

γ-PAK [2] = experiment: Rates of phosphorylation of synthetic peptides by γ-PAK; type: biochemical, rabbit; details: for substrate for γ-PAK (in words): synthetic peptides; for 32P incorporated, %: AKRASAA taken as 100%; for rate of phosphorylation compared to ARRASVA: other studies, ARRASVA = 100%; for rate of phosphorylation compared to AKRASAA: relative to AKRASAA
Description: as §2
Target sequence in this assay (Q29502 249-500 limits assumed): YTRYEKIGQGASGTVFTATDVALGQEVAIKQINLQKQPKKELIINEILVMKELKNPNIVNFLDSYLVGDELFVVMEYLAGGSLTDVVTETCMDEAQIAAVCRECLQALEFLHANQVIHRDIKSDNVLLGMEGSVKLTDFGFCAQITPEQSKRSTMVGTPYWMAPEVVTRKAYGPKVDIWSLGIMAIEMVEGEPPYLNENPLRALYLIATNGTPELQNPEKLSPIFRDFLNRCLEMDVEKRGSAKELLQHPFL
D. Phosphorylation Assays. Phosphorylation of protein substrates was carried out in 35 μL reaction mixtures containing 20 mM Tris-HCl, pH 7.4, 10 mM MgCl2, 30 mM 2-mercaptoethanol, 0.2 mM ATP (specific activity =1000 cpm/pmol), 2 μg of protein substrate, and 20 units of active γ-PAK (an enzyme unit is defined as the amount of enzyme that incorporates 1 pmol of phosphate into histone IIAS/ min at 30°. Under these conditions, phosphate incorporation was linear and initial rates of phosphorylation were measured. After incubation at 30° C. for 15 min, reactions were terminated by the addition of 5 μL of 100 mM nonlabeled ATP and sample buffer for gel electrophoresis [Hathaway, G. M., et al., Methods Enzymol., 60:495-511 (1979)]. Reaction mixtures were subjected to SDS-PAGE on 15% polyacrylamide gels followed by autoradiography. Phosphorylation was quantified by excising the protein band and counting the incorporated ^32P in a liquid scintillation counter. The specific activity of γ-PAK was 400 pmol min^−1 μg^−1 as reported previously using 0.2 mM ATP and 1 mg/mL mixed histone as substrate [Rooney, R. D., et al., (1996), supra].
as §1

[3] = Table 2, influence of basic amino acids, γ-PAK 1.6 units, ATP 0.2 mM, read-out: Km
[4] = Cdc42(GTPγS)-activated γ-PAK, peptide 1 mM, KKRKSAA = 100
[5] = proteolytically (trypsin) activated γ-PAK, peptide 1 mM, compared to KKRKSAA = 100
[6] = proteolytically activated γ-PAK (5.6 units), peptide 1 mM, 30 min at 30° C.
[7] = γ-PAK, calculated with equivalent units of enzyme
[8] = Table 4, influence of proline and glycine
[9] = Table 4, influence of proline and glycine, read-out: Km
[10] = Table 2, influence of basic amino acids, γ-PAK 1.6 units, ATP 0.2 mM

ARKASAA (ARKASAA-NH2) [synthetic peptide with an amide C-terminal group]
Km (γ-PAK [1]; [3]): > 5000 µM
32P incorporated (PKC): 5.7 pmol/unit
32P incorporated, % (PKC): 173%
rel rate (%) (γ-PAK [2]; [4]): 9%
rel rate (%) (γ-PAK [2]; [5]): 6%
32P incorporated (γ-PAK [2]; [6]): 16 pmol/min/µg
substrate for γ-PAK (in words) (γ-PAK [2]): poor substrates
32P incorporated, % (γ-PAK [2]; γ-PAK): 3%
32P incorporated (γ-PAK [2]; [7]): 0.9 pmol/unit

Nc1ncnc2c1ncn2[C@@H]1O[C@H](COP(=O)(O)OP(=O)(O)OP(=O)(O)O)[C@@H](O)[C@H]1O [ATP, reference compound]
Km (γ-PAK [1]; at concentrations of 1-3 mM peptide, read-out: Km for ATP): 65 to 80 µM

AAKRSAA (AAKRSAA-NH2) [synthetic peptide with an amide C-terminal group]
rel rate (%) (γ-PAK [2]; [4]): 0%
rel rate (%) (γ-PAK [2]; [5]): 0%
32P incorporated (γ-PAK [2]; [6]): 0 pmol/min/µg
substrate for γ-PAK (in words) (γ-PAK [2]): poor substrates

AKRGSAA (AKRGSAA-NH2) [synthetic peptide with an amide C-terminal group]
increase of Km compared to AKRASAA (γ-PAK [1]): 7 fold
increase of Vmax compared to AKRASAA (γ-PAK [1]): 6 fold
overall rate of phosphorylation (Vmax/Km) compared to AKRASAA (γ-PAK [1]): slight overall decrease
Vmax (γ-PAK [1]; [8]): 6.44 pmol/min
Km (γ-PAK [1]; [9]): 3520 µM
rel rate (%) (γ-PAK [2]; [5]): 126%
32P incorporated (γ-PAK [2]; [6]): 381 pmol/min/µg

AKRASGA (AKRASGA-NH2) [synthetic peptide with an amide C-terminal group]
increase of Km compared to AKRASAA (γ-PAK [1]): 4 fold
increase of Vmax compared to AKRASAA (γ-PAK [1]): 3 fold
overall rate of phosphorylation (Vmax/Km) compared to AKRASAA (γ-PAK [1]): slight overall decrease
Vmax (γ-PAK [1]; [8]): 3.49 pmol/min
Km (γ-PAK [1]; [9]): 2090 µM
rel rate (%) (γ-PAK [2]; [5]): 107%
32P incorporated (γ-PAK [2]; [6]): 324 pmol/min/µg

AAKKSAA (AAKKSAA-NH2) [synthetic peptide with an amide C-terminal group]
rel rate (%) (γ-PAK [2]; [4]): 0%
rel rate (%) (γ-PAK [2]; [5]): 0%
32P incorporated (γ-PAK [2]; [6]): 0 pmol/min/µg
substrate for γ-PAK (in words) (γ-PAK [2]): poor substrates

ARAASVA [synthetic peptide]
substrate for γ-PAK (in words) (γ-PAK [2]): reacted to a small but significant extent
rate of phosphorylation compared to ARRASVA (γ-PAK [2]; γ-PAK): 40%
rate of phosphorylation compared to AKRASAA (γ-PAK [2]; γ-PAK): 40%

AARASAA (AARASAA-NH2) [synthetic peptide with an amide C-terminal group]
Vmax (γ-PAK [1]; [10]): 2.27 pmol/min
Km (γ-PAK [1]; [3]): 1880 µM
rel rate (%) (γ-PAK [2]; [4]): 56%
rel rate (%) (γ-PAK [2]; [5]): 56%
32P incorporated (γ-PAK [2]; [6]): 169 pmol/min/µg
substrate for γ-PAK (in words) (γ-PAK [2]): reacted to a small but significant extent
rate of phosphorylation compared to AKRASAA (γ-PAK [2]; γ-PAK): 40%

AKRPSAA (AKRPSAA-NH2) [synthetic peptide with an amide C-terminal group]
Km (γ-PAK [1]; [9]): > 5000 µM
32P incorporated (PKC): 3.9 pmol/unit
32P incorporated, % (PKC): 118%
rel rate (%) (γ-PAK [2]; [4]): 11%
rel rate (%) (γ-PAK [2]; [5]): 6%
32P incorporated (γ-PAK [2]; [6]): 16 pmol/min/µg
substrate for γ-PAK (in words) (γ-PAK [2]): virtually abolished phosphorylation
32P incorporated, % (γ-PAK [2]; γ-PAK): 5%
32P incorporated (γ-PAK [2]; [7]): 1.2 pmol/unit

ARRASAA (ARRASAA-NH2) [synthetic peptide with an amide C-terminal group]
Vmax (γ-PAK [1]; [10]): 2.11 pmol/min
Km (γ-PAK [1]; [3]): 650 µM
32P incorporated (PKC): 18.8 pmol/unit
32P incorporated, % (PKC): 570%
rel rate (%) (γ-PAK [2]; [4]): 134%
rel rate (%) (γ-PAK [2]; [5]): 129%
32P incorporated (γ-PAK [2]; [6]): 391 pmol/min/µg
substrate for γ-PAK (in words) (γ-PAK [2]): as good a substrate as AKRASAA
32P incorporated, % (γ-PAK [2]; γ-PAK): 93%
32P incorporated (γ-PAK [2]; [7]): 25.0 pmol/unit

AKRASPA (AKRASPA-NH2) [synthetic peptide with an amide C-terminal group]
Km (γ-PAK [1]; [9]): > 5000 µM
rel rate (%) (γ-PAK [2]; [4]): 3%
rel rate (%) (γ-PAK [2]; [5]): 0%
32P incorporated (γ-PAK [2]; [6]): 0 pmol/min/µg
substrate for γ-PAK (in words) (γ-PAK [2]): virtually abolished phosphorylation

AKRKSAA (AKRKSAA-NH2) [synthetic peptide with an amide C-terminal group]
Vmax (γ-PAK [1]; [10]): 2.34 pmol/min
Km (γ-PAK [1]; [3]): 480 µM
rel rate (%) (γ-PAK [2]; [4]): 158%
rel rate (%) (γ-PAK [2]; [5]): 181%
32P incorporated (γ-PAK [2]; [6]): 548 pmol/min/µg

KKRASAA (KKRASAA-NH2) [synthetic peptide with an amide C-terminal group]
Vmax (γ-PAK [1]; [10]): 1.59 pmol/min
Km (γ-PAK [1]; [3]): 370 µM
rel rate (%) (γ-PAK [2]; [4]): 181%
rel rate (%) (γ-PAK [2]; [5]): 193%
32P incorporated (γ-PAK [2]; [6]): 586 pmol/min/µg

AAAASKR (AAAASKR-NH2) [synthetic peptide with an amide C-terminal group]
32P incorporated (PKC): 13.3 pmol/unit
32P incorporated, % (PKC): 403%
rel rate (%) (γ-PAK [2]; [4]): 0%
rel rate (%) (γ-PAK [2]; [5]): 0%
32P incorporated (γ-PAK [2]; [6]): 0 pmol/min/µg
32P incorporated, % (γ-PAK [2]; γ-PAK): 0%
32P incorporated (γ-PAK [2]; [7]): 0 pmol/unit

KKAASAA (KKAASAA-NH2) [synthetic peptide with an amide C-terminal group]
rel rate (%) (γ-PAK [2]; [4]): 3%
rel rate (%) (γ-PAK [2]; [5]): 0%
32P incorporated (γ-PAK [2]; [6]): 0 pmol/min/µg
substrate for γ-PAK (in words) (γ-PAK [2]): did not

ARRASVA [synthetic peptide]
rate of phosphorylation compared to ARRASVA (γ-PAK [2]; γ-PAK): 100%

KKRKSAA [model peptide patterned after the phosphorylation site of nucleocapsid protein NC]
Vmax (γ-PAK [1]; [10]): 1.84 pmol/min
Km (γ-PAK [1]; [3]): 610 µM
Vmax (γ-PAK [1]; text b67, b73): 302 pmol/min/µg
32P incorporated (PKC): 11.1 pmol/unit
32P incorporated, % (PKC): 370%
rel rate (%) (γ-PAK [2]; [4]): 100%
rel rate (%) (γ-PAK [2]; [5]): 100%
32P incorporated (γ-PAK [2]; [6]): 302 pmol/min/µg
32P incorporated, % (γ-PAK [2]; γ-PAK): 72%
32P incorporated (γ-PAK [2]; [7]): 19.2 pmol/unit
